Laboratory results: PubChem BioAssay (NCI)
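Assay format: 96-well plates, 48-hour exposure. TGI is the concentration that stops growth completely.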

Columns and labels:
Test in all cases: inhibition of tumour cell growth, NCI panel, 48 h
[1] = tested on: 786-0 renal
[2] = tested on: A498 renal
[3] = tested on: A549 NSCLC
[4] = tested on: ACHN renal
[5] = tested on: BT-549 breast
[6] = tested on: CAKI-1 renal
[7] = tested on: CCRF-CEM leukemia
[8] = tested on: COLO 205 colon
[9] = tested on: DU-145 prostate
[10] = tested on: EKVX NSCLC
[11] = tested on: HCC-2998 colon
[12] = tested on: HCT-116 colon
[13] = tested on: HCT-15 colon
[14] = tested on: HL-60(TB) leukemia
[15] = tested on: HOP-62 NSCLC
[16] = tested on: HOP-92 NSCLC
[17] = tested on: HT29 colon
[18] = tested on: IGROV1 ovarian
[19] = tested on: K-562 leukemia
[20] = tested on: KM12 colon
[21] = tested on: LOX IMVI melanoma
[22] = tested on: M14 melanoma
[23] = tested on: MALME-3M melanoma
[24] = tested on: MCF7 breast
[25] = tested on: MDA-MB-231 breast
[26] = tested on: MDA-MB-435
[27] = tested on: MDA-N
[28] = tested on: MOLT-4 leukemia
[29] = tested on: NCI-H226 lung
[30] = tested on: NCI-H23 lung
[31] = tested on: NCI-H460 lung
[32] = tested on: NCI-H522 lung
[33] = tested on: NCI/ADR-RES ovarian
[34] = tested on: OVCAR-5 ovarian
[35] = tested on: OVCAR-8 ovarian
[36] = tested on: PC-3 prostate
[37] = tested on: RPMI-8226 leukemia
[38] = tested on: RXF 393 renal
[39] = tested on: SF-268 CNS
[40] = tested on: SF-539 CNS
[41] = tested on: SK-MEL-2 melanoma
[42] = tested on: SK-MEL-5 melanoma
[43] = tested on: SN12C renal
[44] = tested on: SNB-19 CNS
[45] = tested on: SNB-75 CNS
[46] = tested on: SR leukemia
[47] = tested on: SW-620 colon
[48] = tested on: T-47D breast
[49] = tested on: TK-10 renal
[50] = tested on: U251 CNS
[51] = tested on: UACC-257 melanoma
[52] = tested on: UACC-62 melanoma
[53] = tested on: UO-31 renal
[54] = tested on: HS 578T breast
[55] = tested on: OVCAR-4 ovarian
[56] = tested on: SK-OV-3 ovarian

Which results are given for `CN(C)CCNC(=O)c1cc(-c2nccn2C)nc2ccccc12`?
TGI [1]: > 100 µM; TGI [2]: > 100 µM; TGI [3]: > 100 µM; TGI [4]: > 100 µM; TGI [5]: > 100 µM; TGI [6]: > 100 µM; TGI [7]: > 100 µM; TGI [8]: > 100 µM; TGI [9]: > 100 µM; TGI [10]: > 100 µM; TGI [11]: > 100 µM; TGI [12]: > 100 µM; TGI [13]: > 100 µM; TGI [14]: > 100 µM; TGI [15]: > 100 µM; TGI [16]: > 100 µM; TGI [17]: > 100 µM; TGI [18]: > 100 µM; TGI [19]: > 100 µM; TGI [20]: > 100 µM; TGI [21]: > 100 µM; TGI [22]: > 100 µM; TGI [23]: > 100 µM; TGI [24]: > 100 µM; TGI [25]: > 100 µM; TGI [26]: > 100 µM; TGI [27]: > 100 µM; TGI [28]: > 100 µM; TGI [29]: > 100 µM; TGI [30]: > 100 µM; TGI [31]: > 100 µM; TGI [32]: > 100 µM; TGI [33]: > 100 µM; TGI [34]: > 100 µM; TGI [35]: > 100 µM; TGI [36]: > 100 µM; TGI [37]: > 100 µM; TGI [38]: > 100 µM; TGI [39]: > 100 µM; TGI [40]: > 100 µM; TGI [41]: > 100 µM; TGI [42]: > 100 µM; TGI [43]: > 100 µM; TGI [44]: > 100 µM; TGI [45]: > 100 µM; TGI [46]: > 100 µM; TGI [47]: > 100 µM; TGI [48]: > 100 µM; TGI [49]: > 100 µM; TGI [50]: > 100 µM; TGI [51]: > 100 µM; TGI [52]: > 100 µM; TGI [53]: > 100 µM

With `COc1ccc(/C(C)=N/NC(=O)c2ccncc2)cc1OC` as the compound, how does the TGI [1] read?
The TGI was greater than 10 µM.

And the TGI [2]?
The TGI was greater than 10 µM.

And the TGI [3]?
Its TGI is greater than 10 µM.

And the TGI [5]?
Its TGI is greater than 10 µM.

And the TGI [6]?
The TGI was greater than 10 µM.

And the TGI [7]?
Its TGI is greater than 10 µM.

And the TGI [8]?
Its TGI is greater than 10 µM.

What about the TGI [9] of the same compound?
Its TGI is greater than 10 µM.

And the TGI [11]?
The TGI was greater than 10 µM.

And the TGI [13]?
Its TGI is greater than 10 µM.

And the TGI [14]?
The TGI was greater than 10 µM.

And the TGI [15]?
Its TGI is greater than 10 µM.

What about the TGI [16] of the same compound?
Its TGI is greater than 10 µM.

What about the TGI [54] of the same compound?
Its TGI is greater than 10 µM.

What about the TGI [18] of the same compound?
The TGI was greater than 10 µM.

What about the TGI [19] of the same compound?
Its TGI is greater than 10 µM.

What about the TGI [20] of the same compound?
The TGI was greater than 10 µM.

What about the TGI [21] of the same compound?
The TGI was greater than 10 µM.

What about the TGI [22] of the same compound?
The TGI was greater than 10 µM.

And the TGI [23]?
Its TGI is greater than 10 µM.

What about the TGI [24] of the same compound?
Its TGI is greater than 10 µM.

And the TGI [25]?
Its TGI is greater than 10 µM.

What about the TGI [27] of the same compound?
The TGI was greater than 10 µM.

What about the TGI [28] of the same compound?
The TGI was greater than 10 µM.

What about the TGI [29] of the same compound?
Its TGI is greater than 10 µM.

What about the TGI [30] of the same compound?
The TGI was greater than 10 µM.

And the TGI [31]?
Its TGI is greater than 10 µM.

And the TGI [33]?
Its TGI is greater than 10 µM.

And the TGI [55]?
Its TGI is greater than 10 µM.

What about the TGI [37] of the same compound?
Its TGI is greater than 10 µM.

And the TGI [39]?
The TGI was greater than 10 µM.

What about the TGI [40] of the same compound?
Its TGI is greater than 10 µM.

What about the TGI [42] of the same compound?
Its TGI is greater than 10 µM.

And the TGI [56]?
The TGI was greater than 10 µM.

And the TGI [43]?
The TGI was greater than 10 µM.

What about the TGI [45] of the same compound?
The TGI was greater than 10 µM.

And the TGI [46]?
Its TGI is greater than 10 µM.

And the TGI [47]?
Its TGI is greater than 10 µM.

What about the TGI [48] of the same compound?
The TGI was greater than 10 µM.

What about the TGI [50] of the same compound?
Its TGI is greater than 10 µM.

What about the TGI [51] of the same compound?
Its TGI is greater than 10 µM.

And the TGI [52]?
The TGI was greater than 10 µM.

And the TGI [53]?
Its TGI is greater than 10 µM.
